Assay results as given in ChEMBL document CHEMBL1139063, “Inhibitory effects of phloridzin dihydrate on the activity of mushroom (Agaricus bisporus) tyrosinase” (Bioorg Med Chem, 2007).

B1: Tyrosinase (Agaricus bisporus), O42713 (protein)
chain: MSLIATVGPTGGVKNRLNIVDFVKNEKFFTLYVRSLELLQAKEQHDYSSFFQLAGIHGLPFTEWAKERPSMNLYKAGYCTHGQVLFPTWHRTYLSVLEQILQGAAIEVAKKFTSNQTDWVQAAQDLRQPYWDWGFELMPPDEVIKNEEVNITNYDGKKISVKNPILRYHFHPIDPSFKPYGDFATWRTTVRNPDRNRREDIPGLIKKMRLEEGQIREKTYNMLKFNDAWERFSNHGISDDQHANSLESVHDDIHVMVGYGKIEGHMDHPFFAAFDPIFWLHHTNVDRLLSLWKAINPDVWVTSGRNRDGTMGIAPNAQINSETPLEPFYQSGDKVWTSASLADTARLGYSYPDFDKLVGGTKELIRDAIDDLIDERYGSKPSSGARNTAFDLLADFKGITKEHKEDLKMYDWTIHVAFKKFELKESFSLLFYFASDGGDYDQENCFVGSINAFRGTAPETCANCQDNENLIQEGFIHLNHYLARDLESFEPQDVHKFLKEKGLSYKLYSRGDKPLTSLSVKIEGRPLHLPPGEHRPKYDHTQARVVFDDVAVHVIN

Legend:
Tyrosinase = molecular target: T1, Tyrosinase (Agaricus bisporus, UniProt O42713); assay: Inhibition of diphenolase activity of mushroom tyrosinase
T1 sequence (O42713 whole entry): B1 chain

[1] = substrate: O=C(CCc1ccc(O)cc1)c1c(O)cc(O)cc1O[C@@H]1O[C@H](CO)[C@@H](O)[C@H](O)[C@H]1O; details: Agaricus bisporus
Description: Activity of mushroom tyrosinase diphenolase

Molecule	IC50 (Tyrosinase)	Ki (Tyrosinase)	Km [1]
O=C(CCc1ccc(O)cc1)c1c(O)cc(O)cc1O[C@@H]1O[C@H](CO)[C@@H](O)[C@H](O)[C@H]1O	110 µM	64.3 µM	–
B1	–	–	627 µM
